Source: patent US20260284011A1, “COMPOUNDS FOR RESTORING SUSCEPTIBILITY TO BETA-LACTAM ANTIBIOTICS” (UNIVERSITY OF NOTRE DAME DU LAC, priority 2023, published 2026)

Experiments:
MSSA and MRSA strains = assay: MIC potentiation, groups of strains; format: cell-based, Staphylococcus aureus; details: all 40 tested strains
Experimental: Potentiation of Activities of/36-Lactam Antibiotics. Compound 4 was evaluated as an adjuvant for β-lactam antibiotics, per design principles.
MICs were determined by the microdilution broth method following the Clinical & Laboratory Standards Institute (CLSI) guidelines. […] Experiments were performed in triplicate in 96-well plates with 5×10^5 CFU·mL^−1 of bacteria. […] The MIC was the concentration for which bacterial growth was not observed.

[1] = tested on: active-site serine penicillin-binding proteins; assay: Inhibition of penicillin-binding proteins
BlaR = BlaR (Staphylococcus aureus, UniProt P18357); assay: Live-cell fluorescent assay for BlaR inhibition (Venus reporter); format: cell-based, S. aureus NRS144pCN52RI-Venus; details: compound at 100 mg/L^−1; CBAP 10 mg·L^−1; fluorescence after 2 h
Description: Live-Cell Fluorescent Assay in Discovery and Mechanism of Action. We conceived of fluorescent constructs in the bla operon, for the purpose of screening (FIG. 2a). We removed the gene for the β-lactamase (blaZ) and put in its place individually the genes for the Green Fluorescent Protein (GFP), Venus (a yellow-fluorescent protein) or mCherry (a red-fluorescent protein) in the template plasmid pCN52. The three plasmids were named pCN52RI, pCN52RI-Venus and pCN52RI-mCherry, respectively. The genes for the fluorescent proteins were transcribed under the promoter of the blaZ gene and were regulated by the proteins BlaR and BlaI, as is the case for the wild-type bla operon.
We transformed separately S. aureus NRS144—a laboratory strain that accepts a foreign gene and harbors neither the bla nor the mec operons—with each of these plasmids. […] When induced, the fluorescent protein is produced and is detected (akin to expression of the resistance genes blaZ or mecA in typical MSSA and MRSA). […] The transformed strains were grown in tryptic soy broth medium for overnight culture and strain maintenance and incubated in cation-adjusted Mueller-Hinton broth medium for inhibitor screening in a 96-well microplate format. The culture without CBAP addition was the negative control. In order to select a desirable reporter construct, we compared the intensity of the fluorescence produced from each construct at the wavelengths given in FIG. 2a using the Cytation-5 multi-mode microplate reader. Among the three constructs, pCN52RI-Venus produced the best fluorescence intensity and pCN52RI-mCherry was the second best (FIG. 4).
The collection of the 100 compounds from the in-silico search was screened against S. aureus NRS144pCN52RI-Venus. The screening strategy was as follows. Bacteria grown to OD600 of 0.25 were exposed concurrently to CBAP (10 mg·L^−1) and the test compound (100 mg·L^−1). Fluorescence was recorded after two hours of incubation. OD600 values were also recorded to identify compounds with inherent antibacterial activity. Compound 1 (Chart 1) emerged—82% diminished fluorescence as an indication of the extent of BlaR inhibition—as a suitable template for structure elaboration. This effort led to the synthesis of several dozen benzimidazole and imidazole compounds. The progression of the iterative design is depicted in Chart 1 for four compounds, culminating in 4. […] The X-ray structures for the complexes of compounds 2 (non-covalent) and 4 (covalent) with the BlaR sensor domain are shown respectively in FIG. 2b (2.0 Å resolution) and FIG. 2c (1.97 Å resolution). Compound 4 makes a covalent bond with the catalytic Ser389 and creates a network of hydrogen bonds with the BlaR active site (FIG. 2c).
Fluorescent assay for screening of BlaR potential inhibitors. A 3-mL portion of lysogeny broth (LB) medium was inoculated with NRS144pCN52RI Venus from frozen stocks and grown overnight at 37° C. The overnight culture was then diluted 1:150 fold with fresh LB containing […] of erythromycin and incubated at 37° C. to an OD600 of 0.3, at which point fluorescence was induced by the addition of CBAP to a final concentration of 10 μg·mL^−1. The culture was aliquoted (99 L) into 96-well plate and 1 L of inhibitor solution (1 mg·mL^−1 in DMSO) was added to each well. Negative control (DMSO without CBAP) and positive control (CBAP without inhibitor) were included. The plate was incubated at 30° C. for 2 h with intermittent shaking. Fluorescence and OD600 measurements were taken by a Cytation-5 multimode microplate reader. Percent inhibition of BlaR and bacterial growth were calculated using absorbance unit (AU) and OD600 values of each sample entered into this formula: […]

additional MRSA strains = assay: Checkerboard assay; format: cell-based, Staphylococcus aureus
Experimental: (§1) Synergy with β-Lactams and Time-Kill Assays. […] In this assay, the antibiotics are compared individually and in combination. The fractional inhibitory concentration (FIC) index is calculated. Synergy is defined as an FIC value ≤0.5, indifference as FIC >0.5 to ≤4, and antagonism as FIC >4.
(§2) Checkerboard assay. […] The final inoculum in each well was 5×10^5 CFU·mL^−1, and the result was read after 24-h incubation at 37° C. The fractional inhibitory concentration (FIC) index was calculated for each combination. An FIC index of ≤0.5 is considered synergistic. The experiment was done in triplicates.

strain NRS21 = assay: Checkerboard assay; format: cell-based, Staphylococcus aureus; details: 24-h incubation
Experimental: as §1, §2

HFH29568 = assay: Checkerboard assay; format: cell-based, Staphylococcus aureus
Experimental: as §1, §2

HI049 = assay: Checkerboard assay; format: cell-based, Staphylococcus aureus
Experimental: as §1, §2

Sequence of BlaR (P18357 whole entry): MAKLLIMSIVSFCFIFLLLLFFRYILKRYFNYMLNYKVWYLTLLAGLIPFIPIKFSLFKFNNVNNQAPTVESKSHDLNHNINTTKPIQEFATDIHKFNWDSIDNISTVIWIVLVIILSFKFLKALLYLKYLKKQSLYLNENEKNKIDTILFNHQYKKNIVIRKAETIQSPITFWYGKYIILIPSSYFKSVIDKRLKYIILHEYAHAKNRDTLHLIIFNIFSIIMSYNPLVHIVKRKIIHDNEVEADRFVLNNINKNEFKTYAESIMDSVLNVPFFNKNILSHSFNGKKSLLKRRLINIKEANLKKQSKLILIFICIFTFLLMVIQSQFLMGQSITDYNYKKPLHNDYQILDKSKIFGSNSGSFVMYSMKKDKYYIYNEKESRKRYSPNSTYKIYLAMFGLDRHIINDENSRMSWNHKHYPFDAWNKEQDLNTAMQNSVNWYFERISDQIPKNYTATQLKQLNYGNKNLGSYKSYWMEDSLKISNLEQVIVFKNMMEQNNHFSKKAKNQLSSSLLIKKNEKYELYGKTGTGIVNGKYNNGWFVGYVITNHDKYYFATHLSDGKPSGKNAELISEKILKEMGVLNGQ

Row | Structure (SMILES) | potentiation of the activity of MEM by 4 (MSSA and MRSA strains) | inhibitory properties against penicillin-binding proteins [1] | % Inhibition of BlaR (BlaR) [%] | FIC, 4 with OXA, MEM, FOX, or CPT (additional MRSA strains) | FIC index, 4 with FOX (strain NRS21) | FIC index, 4 with OXA (strain NRS21) | FIC index, 4 with MEM (HFH29568) | FIC index, 4 with MEM (HI049)
1 | N#Cc1ccc2nc(SCB(O)O)n(Cc3ccc(C(F)(F)F)cc3C(F)(F)F)c2c1 [Compound 4, (((1-(2,4-bis(trifluoro-methyl)benzyl)-6-cyano-1H-benzo[d]imidazol-2-yl)thio)methyl)boronic acid] | lowering MICs to below resistant level | modest inhibitory properties | 98 | < 0.25 | 0.25 | 0.19 | – | –
2 | C[C@@H](O)[C@H]1C(=O)N2C(C(=O)O)=C(S[C@@H]3CN[C@H](C(=O)N(C)C)C3)[C@H](C)[C@H]12 [MEM, meropenem] | – | – | – | – | – | – | 0.09 | 0.19
